# Measurements reported in PubChem BioAssay AID330 (DTP/NCI, 2004).
# Several values for one entry are separate records, joined by “and”; a condition that tells them apart may be missing. Equal entries are not always repeated. Toxic doses and inconclusive results are not listed. Square brackets hold non-standard residues; d marks the D form. Peptide text beside a SMILES is read from it. Abu = CC[CH](N)C(=O)O
# Tested on: P388 leukemia ip, CD2F1 mice, survival T/C
# Assay: NCI In Vivo Anticancer Drug Screen. Data for tumor model P388 Leukemia (intraperitoneal) in CD2F1 (CDF1) mice
# Conditions: higher = longer survival
# Outline: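 Mice carrying the transplanted tumor received test compound or vehicle. Survival was recorded in each group, and the value is the treated-group measurement divided by that of the vehicle-treated control group.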
# [1] = endpoint: median survival time, dose: 100.0 mg/kg/injection, schedule: Q04DX003 (ip), vehicle: Klucel (hydroxypropylcellulose) (HPC)
# [2] = endpoint: median survival time, dose: 200.0 mg/kg/injection, schedule: Q04DX003 (ip), vehicle: Klucel (hydroxypropylcellulose) (HPC)
# [3] = endpoint: median survival time, dose: 400.0 mg/kg/injection, schedule: Q04DX003 (ip), vehicle: Klucel (hydroxypropylcellulose) (HPC)
# [4] = endpoint: median survival time, dose: 100.0 mg/kg/injection, schedule: Q01DX001 (ip), vehicle: saline with Tween-80
# [5] = endpoint: median survival time, dose: 200.0 mg/kg/injection, schedule: Q01DX001 (ip), vehicle: saline with Tween-80
# [6] = endpoint: median survival time, dose: 50.0 mg/kg/injection, schedule: Q01DX005 (ip), vehicle: Klucel (hydroxypropylcellulose) (HPC)
# [7] = endpoint: median survival time, dose: 100.0 mg/kg/injection, schedule: Q01DX005 (ip), vehicle: Klucel (hydroxypropylcellulose) (HPC)
# [8] = endpoint: median survival time, dose: 200.0 mg/kg/injection, schedule: Q01DX005 (ip), vehicle: Klucel (hydroxypropylcellulose) (HPC)
# [9] = endpoint: median survival time, dose: 20.0 mg/kg/injection, schedule: Q01DX009 (ip), vehicle: saline
# [10] = endpoint: median survival time, dose: 50.0 mg/kg/injection, schedule: Q01DX009 (ip), vehicle: Klucel (hydroxypropylcellulose) (HPC)
# [11] = endpoint: median survival time, dose: 100.0 mg/kg/injection, schedule: Q01DX009 (ip), vehicle: Klucel (hydroxypropylcellulose) (HPC)
# [12] = endpoint: median survival time, dose: 200.0 mg/kg/injection, schedule: Q01DX009 (ip), vehicle: Klucel (hydroxypropylcellulose) (HPC)
# [13] = endpoint: median survival time, dose: 50.0 mg/kg/injection, schedule: Q01DX001 (ip), vehicle: saline with Tween-80
# [14] = endpoint: median survival time, dose: 100.0 mg/kg/injection, schedule: Q04DX003 (ip), vehicle: saline with Tween-80
# [15] = endpoint: median survival time, dose: 200.0 mg/kg/injection, schedule: Q04DX003 (ip), vehicle: saline with Tween-80
# [16] = endpoint: median survival time, dose: 400.0 mg/kg/injection, schedule: Q04DX003 (ip), vehicle: saline with Tween-80
# [17] = endpoint: median survival time, dose: 60.0 mg/kg/injection, schedule: Q01DX005 (ip), vehicle: saline with Tween-80
# [18] = endpoint: median survival time, dose: 120.0 mg/kg/injection, schedule: Q01DX005 (ip), vehicle: saline with Tween-80
# [19] = endpoint: median survival time, dose: 50.0 mg/kg/injection, schedule: Q01DX009 (ip), vehicle: saline
# [20] = endpoint: median survival time, dose: 100.0 mg/kg/injection, schedule: Q01DX009 (ip), vehicle: saline
# [21] = endpoint: median survival time, dose: 200.0 mg/kg/injection, schedule: Q01DX009 (ip), vehicle: saline
structure (smiles),measurement,setting,value
CCC1(c2ccccc2)CCCC/C1=N/Nc1ccc([N+](=O)[O-])cc1[N+](=O)[O-] (configuration not stated),T/C,[1],91 % of control
same,T/C,[2],92 % of control
same,T/C,[3],99 % of control
CCC(=O)NCC(CN(C)C)(c1ccccc1)c1ccccc1,T/C,[4],112 % of control
same,T/C,[5],100 % of control
c1ccc2nc(N3CCCC3)c(N3CCCCCC3)nc2c1,T/C,[6],100 % of control
same,T/C,[7],100 % of control
same,T/C,[8],107 % of control
CC(=O)[O][Hg][CH2]C1Cc2ccccc2O1 (configuration not stated),T/C,"endpoint: median survival time, dose: 2.5 mg/kg/injection, schedule: Q01DX009 (ip), vehicle: saline",98 % of control
same,T/C,"endpoint: median survival time, dose: 5.0 mg/kg/injection, schedule: Q01DX009 (ip), vehicle: saline",99 % of control
same,T/C,"endpoint: median survival time, dose: 10.0 mg/kg/injection, schedule: Q01DX009 (ip), vehicle: saline",99 % of control
same,T/C,[9],100 % of control
O=S(=O)(O)c1ccc(-c2ccc(S(=O)(=O)O)cc2)cc1 (tested in a mixture with another compound),T/C,"endpoint: mean survival time, dose: 20.0 mg/kg/injection, schedule: Q01DX009 (ip), vehicle: saline",253 % of control
same,T/C,"endpoint: mean survival time, dose: 40.0 mg/kg/injection, schedule: Q01DX009 (ip), vehicle: saline",232 % of control
same,T/C,"endpoint: median survival time, dose: 12.5 mg/kg/injection, schedule: Q01DX009 (ip), vehicle: saline sonified",154 % of control
same,T/C,[9],231 % of control
same,T/C,"endpoint: median survival time, dose: 25.0 mg/kg/injection, schedule: Q01DX009 (ip), vehicle: saline sonified",150 % of control
same,T/C,"endpoint: median survival time, dose: 33.0 mg/kg/injection, schedule: Q04DX003 (ip), vehicle: saline",165 % of control
same,T/C,"endpoint: median survival time, dose: 40.0 mg/kg/injection, schedule: Q01DX009 (ip), vehicle: saline",272 % of control
same,T/C,"endpoint: median survival time, dose: 50.0 mg/kg/injection, schedule: Q01DX009 (ip), vehicle: saline sonified",272 % of control
same,T/C,"endpoint: median survival time, dose: 50.0 mg/kg/injection, schedule: Q04DX003 (ip), vehicle: saline sonified",181 % of control
same,T/C,"endpoint: median survival time, dose: 50.0 mg/kg/injection, schedule: Q04DX003 (ip), vehicle: saline",169 % of control
same,T/C,"endpoint: median survival time, dose: 75.0 mg/kg/injection, schedule: Q04DX003 (ip), vehicle: saline",221 % of control
CC(=O)OC1OC(CS[As](C)CCO)C(OC(C)=O)C(OC(C)=O)C1OC(C)=O (configuration not stated),T/C,[10],110 % of control
same,T/C,[11],112 % of control
same,T/C,[12],112 % of control
NNC(=O)CCc1c[nH]c2ccccc12,T/C,[13],100 % of control
same,T/C,[4],96 % of control
same,T/C,[5],111 % of control
same,T/C,"endpoint: median survival time, dose: 400.0 mg/kg/injection, schedule: Q01DX001 (ip), vehicle: saline with Tween-80",111 % of control
CCOC(=O)Nc1cc(NC/C(=N/O)c2ccc(Cl)cc2)c([N+](=O)[O-])c(N)n1,T/C,"endpoint: median survival time, dose: 50.0 mg/kg/injection, schedule: Q01DX001 (ip), vehicle: Klucel (hydroxypropylcellulose) (HPC)",90 % of control
same,T/C,"endpoint: median survival time, dose: 100.0 mg/kg/injection, schedule: Q01DX001 (ip), vehicle: Klucel (hydroxypropylcellulose) (HPC)",87 % of control
C[C@]12CCC(=O)C=C1CC[C@@H]1[C@@H]2[C@@H](O)C[C@@]2(C)[C@H]1CC[C@]2(O)C(=O)COC(=O)COCC(=O)O,T/C,[14],104 % of control
same,T/C,[15],100 % of control
same,T/C,[16],116 % of control
CCN(CC)C(=O)c1c2nc3c(C(=O)N(CC)CC)ccc(C)c3oc-2c(C)c(=O)c1N,T/C,[17],98 % of control
same,T/C,[18],88 % of control
CC1(C)OC2C(COC(=O)c3ccccc3)OC(n3cnc4c(=NC(=O)c5ccccc5)n(C(=O)c5ccccc5)cnc43)C2O1 (configuration not stated),T/C,[6],94 % of control
same,T/C,[7],94 % of control
O=NN1CC23C=CCCC2(CCCC3)C1 (configuration not stated),T/C,[1],113 % of control
same,T/C,[2],114 % of control
same,T/C,[3],104 % of control
O=C1c2ccccc2C(=O)C1(c1ccccn1)[N+](=O)[O-],T/C,[17],110 % of control
same,T/C,[18],113 % of control
O=C1NC(c2cccc3c2OCO3)N=C2Oc3ccccc3C=C12 (configuration not stated),T/C,"endpoint: median survival time, dose: 25.0 mg/kg/injection, schedule: Q01DX009 (ip), vehicle: saline",107 % of control and 87 % of control
same,T/C,"endpoint: median survival time, dose: 50.0 mg/kg/injection, schedule: Q01DX009 (ip), vehicle: saline with Tween-80",118 % of control
same,T/C,[19],100 % of control and 107 % of control
same,T/C,"endpoint: median survival time, dose: 100.0 mg/kg/injection, schedule: Q01DX009 (ip), vehicle: saline with Tween-80",120 % of control
same,T/C,[20],106 % of control and 117 % of control
same,T/C,[21],106 % of control and 117 % of control
O=c1[nH]nc(NC2Nc3ccccc3N2)c2ccccc12,T/C,[17],97 % of control
same,T/C,[18],96 % of control
same,T/C,"endpoint: median survival time, dose: 240.0 mg/kg/injection, schedule: Q01DX005 (ip), vehicle: saline with Tween-80",96 % of control
OCCN1CCOCC1,T/C,[14],95 % of control
same,T/C,[15],95 % of control
same,T/C,[16],95 % of control
CCCCCCCCCC(=O)C(=O)c1ccc(O)c(C)c1O,T/C,[10],94 % of control
same,T/C,[11],94 % of control
same,T/C,[12],94 % of control
CCC(N)C(=O)NC(C(N)=O)C(C)C (configuration not stated) (H-[Abu]-Val-NH2; configuration not given here),T/C,"endpoint: median survival time, dose: 50.0 mg/kg/injection, schedule: Q01DX005 (ip), vehicle: saline",102 % of control
same,T/C,"endpoint: median survival time, dose: 100.0 mg/kg/injection, schedule: Q01DX005 (ip), vehicle: saline",101 % of control
same,T/C,"endpoint: median survival time, dose: 200.0 mg/kg/injection, schedule: Q01DX005 (ip), vehicle: saline",104 % of control
N#CCCn1nc(SCc2ccccc2)c(=O)[nH]c1=O,T/C,"endpoint: median survival time, dose: 50.0 mg/kg/injection, schedule: Q01DX005 (ip), vehicle: saline with Tween-80",95 % of control
same,T/C,"endpoint: median survival time, dose: 100.0 mg/kg/injection, schedule: Q01DX005 (ip), vehicle: saline with Tween-80",94 % of control
same,T/C,"endpoint: median survival time, dose: 200.0 mg/kg/injection, schedule: Q01DX005 (ip), vehicle: saline with Tween-80",92 % of control
O=NNc1ccc(F)cn1,T/C,"endpoint: median survival time, dose: 3.12 mg/kg/injection, schedule: Q01DX009 (ip), vehicle: water",117 % of control
same,T/C,"endpoint: median survival time, dose: 12.5 mg/kg/injection, schedule: Q01DX009 (ip), vehicle: water",153 % of control
same,T/C,"endpoint: median survival time, dose: 25.0 mg/kg/injection, schedule: Q01DX009 (ip), vehicle: water",162 % of control and 166 % of control
same,T/C,"endpoint: median survival time, dose: 50.0 mg/kg/injection, schedule: Q01DX009 (ip), vehicle: water",99 % of control
C=CCCC(=O)OC(C)(C)C,T/C,"endpoint: median survival time, dose: 12.5 mg/kg/injection, schedule: Q01DX009 (ip), vehicle: Klucel (hydroxypropylcellulose) (HPC)",102 % of control
same,T/C,"endpoint: median survival time, dose: 25.0 mg/kg/injection, schedule: Q01DX009 (ip), vehicle: Klucel (hydroxypropylcellulose) (HPC)",101 % of control
same,T/C,[10],104 % of control
same,T/C,[11],101 % of control
same,T/C,[12],103 % of control
NC(CC(=O)O)P(=O)(O)O (configuration not stated),T/C,[19],93 % of control
same,T/C,[20],98 % of control
same,T/C,[21],107 % of control
C=CC(C)(C)C1=CC(=O)C(OC)=CC1=O,T/C,[6],100 % of control
same,T/C,[7],103 % of control
same,T/C,[8],100 % of control
Cn1c2ccc([N+](=O)[O-])cc2c(=O)c2c(O)cc3c(c21)C=CC(C)(C)O3,T/C,"endpoint: median survival time, dose: 25.0 mg/kg/injection, schedule: Q01DX001 (ip), vehicle: saline with Tween-80",97 % of control
same,T/C,[13],97 % of control
same,T/C,[4],89 % of control and 95 % of control
C/C=C/CC(C)C(O)C1C(=O)NC(CC)C(=O)N(C)CC(=O)N(C)C(CC(C)C)C(=O)NC(C(C)C)C(=O)N(C)C(CC(C)C)C(=O)NC(C)C(=O)NC(C)C(=O)N(C)C(CC(C)C)C(=O)N(C)C(CC(C)C)C(=O)N(C)C(C(C)C)C(=O)N1C (configuration not stated),T/C,"endpoint: median survival time, dose: 15.0 mg/kg/injection, schedule: Q01DX009 (ip), vehicle: Klucel (hydroxypropylcellulose) (HPC)",106 % of control
same,T/C,"endpoint: median survival time, dose: 30.0 mg/kg/injection, schedule: Q01DX009 (ip), vehicle: Klucel (hydroxypropylcellulose) (HPC)",109 % of control
same,T/C,"endpoint: median survival time, dose: 60.0 mg/kg/injection, schedule: Q01DX009 (ip), vehicle: Klucel (hydroxypropylcellulose) (HPC)",116 % of control
same,T/C,"endpoint: median survival time, dose: 120.0 mg/kg/injection, schedule: Q01DX009 (ip), vehicle: Klucel (hydroxypropylcellulose) (HPC)",109 % of control
